US8507514B2, “Hydrazide compound and use of the same in pest control” (Sumitomo Chemical Company, Limited, priority 2009, dated 2013)

Legend:
Musca domestica = assay: Test Example 1: Musca domestica filter paper/sucrose bait test; assay type: in vivo; details: 500 ppm test solution, 0.7 ml on filter paper with sucrose bait, 10 female imagoes, after 24 hours, read-out: pest death rate
Method: (§1) Formulations of some compounds of the present invention were obtained according to Formulation Example 5. The formulation was diluted with water to prepare a test solution having 500 ppm of the active ingredient.
A filter paper having a diameter of 5.5 cm was spread on the bottom of a polyethylene cup having a diameter of 5.5 cm and 0.7 ml of the test solution was added dropwise onto the filter paper. As a bait, 30 mg of sucrose was uniformly placed on the filter paper. Into the polyethylene cup, 10 female imagoes of Musca domestica were released and the cup was sealed with a lid. After 24 hours, the number of surviving or dead Musca domestica was counted and a pest death rate was calculated according to the following equation. Pest death rate(%)=(Number of dead imagoes/Number of tested imagoes)×100

Spodoptela litura = assay: Test Example 4: Spodoptela litura larvae on treated artificial diet; assay type: in vivo; details: 144 h; 500 ppm test solution, 2 mL on artificial diet Insecta LF; 5 fourth instar larvae; after 6 days; read-out: pest death rate
Method: as §1
A filter paper having a diameter of 5.5 cm was spread on the bottom of a polyethylene cup having a diameter of 5.5 cm. Insecta LF (manufactured by NOSAN CORPORATION), an artificial diet, was sliced to 6 mm in thickness, cut into half, and then placed on the filter paper. Then, 2 mL of the test solution was poured into the polyethylene cup. After the test solution was air-dried, 5 fourth instar larvae of Spodoptela litura were released into the polyethylene cup and the cup was sealed with a lid. After 6 days, the number of surviving or dead Spodoptela litura was counted and a pest death rate was calculated according to the following equation. Pest death rate(%)=(Number of dead larvae/Number of tested larvae)×100

SMILES	pest or weed control at 500 ppm (Musca domestica)	pest or weed control at 500 ppm (Spodoptela litura)
CC(=O)NN(C(=O)OC(C)(C)C)c1cccc(C2=NOC(c3cc(Cl)cc(Cl)c3)(C(F)(F)F)C2)c1 (stereo not shown) [(1)]	100%	≥ 80%
CC(=O)NN(C)c1cccc(C2=NOC(c3cc(Cl)cc(Cl)c3)(C(F)(F)F)C2)c1 (stereo not shown) [(5)]	–	≥ 80%
O=C(CC(F)(F)F)NNc1cccc(C2=NOC(c3cc(Cl)cc(Cl)c3)(C(F)(F)F)C2)c1 (stereo not shown) [(7)]	100%	–
Cc1ccc(C2=NOC(c3cc(Cl)cc(Cl)c3)(C(F)(F)F)C2)cc1NNC(=O)CC(F)(F)F (stereo not shown) [(8)]	100%	–
O=C(CC(F)(F)F)NNc1cc(C2=NOC(c3cc(Cl)cc(Cl)c3)(C(F)(F)F)C2)ccc1F (stereo not shown) [(10)]	100%	–
O=C(CC(F)(F)F)NNc1cc(C2=NOC(c3cc(Cl)cc(Cl)c3)(C(F)(F)F)C2)ccc1Cl (stereo not shown) [(11)]	100%	–
CC(C)CC(=O)NNc1cc(C2=NOC(c3cc(Cl)cc(Cl)c3)(C(F)(F)F)C2)ccc1Cl (stereo not shown) [(15)]	100%	–
CC(C)(C)C(=O)NNc1cc(C2=NOC(c3cc(Cl)cc(Cl)c3)(C(F)(F)F)C2)ccc1Cl (stereo not shown) [(23)]	100%	–
O=C(Cc1ccccc1)NNc1cc(C2=NOC(c3cc(Cl)cc(Cl)c3)(C(F)(F)F)C2)ccc1Cl (stereo not shown) [(26)]	–	≥ 80%
O=C(CCCBr)NNc1cc(C2=NOC(c3cc(Cl)cc(Cl)c3)(C(F)(F)F)C2)ccc1Cl (stereo not shown) [(34)]	–	≥ 80%
O=C(CCCC(F)(F)F)NNc1cc(C2=NOC(c3cc(Cl)cc(Cl)c3)(C(F)(F)F)C2)ccc1Cl (stereo not shown) [(36)]	100%	≥ 80%
COCC(=O)NNc1cc(C2=NOC(c3cc(Cl)cc(Cl)c3)(C(F)(F)F)C2)ccc1Cl (stereo not shown) [(38)]	100%	≥ 80%
CC(C)(CCl)C(=O)NNc1cc(C2=NOC(c3cc(Cl)cc(Cl)c3)(C(F)(F)F)C2)ccc1Cl (stereo not shown) [(40)]	100%	≥ 80%
CC(=O)N(NC(=O)CCC(F)(F)F)c1cc(C2=NOC(c3cc(Cl)cc(Cl)c3)(C(F)(F)F)C2)ccc1Cl (stereo not shown) [(53)]	–	≥ 80%
COCC(=O)NN(C(=O)c1ccccc1)c1cc(C2=NOC(c3cc(Cl)cc(Cl)c3)(C(F)(F)F)C2)ccc1Cl (stereo not shown) [(57)]	–	≥ 80%
